Entries after “also recorded” stand apart in the source; their conditions may differ. Marks after values point to notes of the source that are not given here.
How the values were obtained:
[1] = tested on: HLA-B*0702 transgenic mice; assay: Vaccination of HLA-B*0702 transgenic mice; specific CTLs detected by cytotoxicity or IFNγ ELISPOT; format: in vivo, mouse; conditions: for cross recognition of the native peptide by CTLs induced by the optimized peptide in mice (in words): HLA-B*0702 transgenic mice, target cells loaded with native peptide; for Immunogenicity against optimized peptide (responding mice/vaccinated mice) / Immunogenicity against native peptide (responding mice/vaccinated mice): mice vaccinated twice with the optimized peptide; for Immunogenicity against optimized peptide (responding mice/vaccinated mice): cytotoxicity or IFNγ ELISPOT against target cells loaded with the optimized peptide; for Immunogenicity against native peptide (responding mice/vaccinated mice): target cells loaded with the corresponding native peptide; for immunogenicity in HLA-B*0702 transgenic mice (in words): specific CTL induction after vaccination, cytotoxicity (ratio 30/1) or IFNγ ELISpot; for Immunogenicity (number of responding mice/number of vaccinated mice): native peptides, 100 μg peptide in IFA s.c. with HBVcore128 helper epitope, twice at two weeks interval
Protocol: The HLA-B7 H-2 class-I knockout mice were previously described.
Mice were injected subcutaneously with 100 μg of peptide emulsified in Incomplete Freund's Adjuvant (IFA) in the presence of 150 μg of the I-A^b restricted HBVcore128 T helper epitope ([…]) twice at two weeks interval.
A particular protocol was applied for MAGE-A 274L9, with two injections of this peptide at two weeks interval and 15 days later one injection with each one of the native peptide.
On day 6 of culture the bulk responder populations were tested for specific cytotoxicity. […] Percentage of specific lysis was determined as: % Lysis = (Experimental Release-Spontaneous Release) / (Maximal Release-Spontaneous Release) × 100. Spontaneous release is obtained using medium only, maximum release with HCl 0.1 M.
Seven days after the last vaccination, spleens were removed and T cells were isolated by Ficoll centrifugation and tested ex vivo for the recognition of 10 μM of either the native or optimized peptide. IFNγ producing T cells were quantified by ELISpot using the Diaclone Kit Murine IFNγ ELISpot (Besançon, France) according to manufacturer's recommendations. 250 000 spleen T cells were distributed per well and tested for the recognition of 10 μM of either the native or optimized peptide. Positive control was Concanavalin A and negative control was medium alone. All conditions were tested in sixplicates.

[2] = tested on: CD8+ T cells from healthy donors; assay: In vitro induction of specific CTLs from PBMC of healthy HLA-B*0702 donors (IFNγ intracellular staining or ELISPOT); format: cell-based, human; conditions: for immunogenicity in vitro in human PBMC (in words): CD8+ T cells from healthy donors, four stimulations with peptide loaded autologous DC; for Immunogenicity against optimized peptide (number of positive culture/number of total cultures): human healthy donor PBMC stimulated with optimized peptide loaded DC, T2-B7 cells loaded with optimized peptide; for Immunogenicity against native peptide (number of positive culture/number of total cultures): human healthy donor PBMC stimulated with optimized peptide, T2-B7 cells loaded with corresponding native peptide
Protocol: CD8+ T cells from healthy donors were in vitro stimulated with autologous dendritic cells loaded with each optimized cryptic peptide. After four stimulations, proliferating cells were tested for the presence of IFNγ producing CTLs upon stimulation with T2-B7 cells loaded with optimized or native peptides either by intracellular IFNγ staining or by IFNγ ELISPOT assay.
PBMC were collected by leukapheresis from healthy HLA-A*B702 volunteers. Dendritic cells (DC) were produced from adherent cells cultured with 500 IU/ml GM-CSF and 500 IU/ml IL-4, in complete synthetic medium (AIMV) for seven days. On day 7, DCs were pulsed with 10 μM of peptide during 2 hours and CD8^+ cells were purified by negative selection with CD8 Dynabeads Untouched Human CD8. CD8^+ cells (2 × 10^5) + CD8^− cells (6 × 10^4) were stimulated with 3 × 10^4 peptide-pulsed DC in AIMV medium supplemented with 1000 IU/ml IL-6 and 5 IU/ml IL-12 in round-bottomed 96-well plates.
From day 7, cultures were stimulated weekly with peptide-loaded DC in the presence of 20 IU/ml IL-2 and 10 ng/ml IL-7, 1 μg/ml anti-CD40 and 500 IU/ml IFNγ.
After the third stimulation, CD8 cells were maintained in AIMV supplemented with 20 IU/ml IL-2 during 7 days. Cultures were starved overnight with AIMV and then were tested in an intracellular IFNγ and an IFNγ ELISpot assay.
Stimulated T cells (10^5) from each pool were incubated with 2 × 10^5 T2 cells loaded with stimulating peptide in the presence of 20 μg/ml Brefeldin-A (Sigma, Oakville, Canada). Six hours later they were washed, stained with r-phycoerythrin-conjugated anti-CD8 antibody (Caltag Laboratories, Burlingame, CA, USA) in PBS for 25 min at 4°C, washed again, and fixed with 4% PFA. The cells were then permeabilized with PBS, 0.5% BSA, 0.2% saponin (Sigma, Oakville, Canada), and labelled with an allophycocyanin-conjugated anti-IFNγ mAb (PharMingen, Mississauga, Canada) for 25 min at 4°C before analysis with a FACSCalibur® flow cytometer.
Stimulated T cells were splited in four pools and IFNγ producing T cells was quantified in each pool by ELISpot using the Diaclone Kit Human IFNγ ELISpot (Besançon, France) according to manufacturer's recommendations. 250 000 cells were distributed per well and tested for the recognition of 10 μM of either the native or optimized peptide. Positive control was Concanavalin A and negative control was medium alone or an irrelevant peptide. All conditions were tested in sixplicates.

HLA-B*0702 = molecular target: T1, HLA-B*0702 (Homo sapiens, UniProt P01889); assay: Measurement of peptide relative affinity to HLA-B*0702 (surface expression on T2-B7 cells); format: cell-based; conditions: for RA (Relative Affinity): 37°C 16 hours, peptide 100 μM to 0.1 μM, ME-1 mAb staining, RA = concentration inducing 20% of HLA-B*0702 expression / that of reference R10V, mean ± SD, at least three experiments, ≥ 10 = 10 or not measurable; for binding to / affinity for HLA-B*0702 (in words): relative to reference peptide R10V
T1 construct: expressed in transfected cells; host or cells: human T2-B7 cells (T2 transfected with HLA-B*0702)
Protocol: The protocol used has been described previously. Briefly, T2-B7 cells were incubated at 37°C for 16 hours with peptides concentrations ranging from 100 μM to 0.1 μM (100 μM, 10 μM, 1 μM and 0.1μM), and then stained with ME-1 monoclonal antibody (mAb) to quantify the surface expression of HLA-B*0702. For each peptide concentration, the HLA-B*0702 specific staining was calculated as the percentage of staining obtained with 100 μM of the reference peptide CMV265–274 (R10V; […], SEQ ID NO: 9). The relative affinity (RA) was determined as: RA = (Concentration of each peptide that induces 20% of HLA-B*0702-expression/Concentration of the reference R10V peptide that induces 20% of HLA-B*0702 expression). In case of non-binders peptide, RA is not evaluable since the 20% of HLA-B*0702 expression is not reach even with the highest concentration of peptide.

APKHSDCLA [HER2/neu246A1, optimized Her2/neu246 modified at position 1 by an alanine]
cross recognition of the native peptide by CTLs induced by the optimized peptide in mice (in words) [1]: able to recognize target cells loaded with their corresponding native peptide | Immunogenicity against optimized peptide (responding mice/vaccinated mice) [1]: 8/12 | Immunogenicity against native peptide (responding mice/vaccinated mice) [1]: 5/12 | immunogenicity in HLA-B*0702 transgenic mice (in words) [1]: immunogenic | immunogenicity in vitro in human PBMC (in words) [2]: confirmed | Immunogenicity against optimized peptide (number of positive culture/number of total cultures) [2]: 2/4 | Immunogenicity against native peptide (number of positive culture/number of total cultures) [2]: 1/4

APRTKAEML [MAGE-A1_121 A1R3, optimized MAGE-A1_121, alanine at position 1 and arginine at position 3]
RA (Relative Affinity) (HLA-B*0702; SD): 2.36 ± 0.28 | binding to / affinity for HLA-B*0702 (in words) (HLA-B*0702): high HLA-B*0702 affinity

APRSLGLEL [Hsp70_397 R3L9, optimized Hsp70_397, arginine at position 3 and leucine at C-terminal position]
RA (Relative Affinity) (HLA-B*0702; SD): 1 ± 0.6 | binding to / affinity for HLA-B*0702 (in words) (HLA-B*0702): high HLA-B*0702 affinity

APRSPLAPS [Her2/neu1069, Her2/neu derived native peptide]
Immunogenicity (number of responding mice/number of vaccinated mice) [1]: 5/7 | immunogenicity in HLA-B*0702 transgenic mice (in words) [1]: immunogenic

APLSLGLET [Hsp70_397, Hsp70 derived native cryptic peptide]
immunogenicity in HLA-B*0702 transgenic mice (in words) [1]: only the high affinity TERT4 was immunogenic | RA (Relative Affinity) (HLA-B*0702): ≥ 10 | binding to / affinity for HLA-B*0702 (in words) (HLA-B*0702): low affinity

APVTKAEML [MAGE-A1_121 A1, MAGE-A1_121 with alanine at position 1]
RA (Relative Affinity) (HLA-B*0702): ≥ 10 | binding to / affinity for HLA-B*0702 (in words) (HLA-B*0702): fail to bind to HLA-B*0702 with high affinity

SPRLQLSND [CEA188, CEA derived native peptide]
Immunogenicity (number of responding mice/number of vaccinated mice) [1]: 0/3 | immunogenicity in HLA-B*0702 transgenic mice (in words) [1]: non immunogenic

YPEEISSMVL [Hsp70_115, Hsp70 derived native cryptic peptide]
immunogenicity in HLA-B*0702 transgenic mice (in words) [1]: only the high affinity TERT4 was immunogenic | RA (Relative Affinity) (HLA-B*0702): ≥ 10 | binding to / affinity for HLA-B*0702 (in words) (HLA-B*0702): low affinity

GPRALVETS [MAGE-A3_274, native peptide shared by MAGE-A3 and MAGE-A12]
Immunogenicity (number of responding mice/number of vaccinated mice) [1]: 2/3* | immunogenicity in HLA-B*0702 transgenic mice (in words) [1]: very weak immunogenicity; also recorded: very weakly immunogenic

SPRLQLSNL [CEA188L9, optimized CEA188 modified at last position by a leucine]
cross recognition of the native peptide by CTLs induced by the optimized peptide in mice (in words) [1]: able to recognize target cells loaded with their corresponding native peptide | Immunogenicity against optimized peptide (responding mice/vaccinated mice) [1]: 6/6 | Immunogenicity against native peptide (responding mice/vaccinated mice) [1]: 6/6 | immunogenicity in HLA-B*0702 transgenic mice (in words) [1]: immunogenic | immunogenicity in vitro in human PBMC (in words) [2]: confirmed | Immunogenicity against optimized peptide (number of positive culture/number of total cultures) [2]: 1/3 | Immunogenicity against native peptide (number of positive culture/number of total cultures) [2]: 2/3

EPITKAEIL [MAGE-A4_121, MAGE-A derived native cryptic peptide]
RA (Relative Affinity) (HLA-B*0702): ≥ 10 | binding to / affinity for HLA-B*0702 (in words) (HLA-B*0702): low affinity

APRGVPQIEV [HSP70_466, HSP70 derived native peptide]
Immunogenicity (number of responding mice/number of vaccinated mice) [1]: 3/3 | immunogenicity in HLA-B*0702 transgenic mice (in words) [1]: immunogenic

YPVTNAVITV [Hsp70_137, Hsp70 derived native cryptic peptide]
immunogenicity in HLA-B*0702 transgenic mice (in words) [1]: only the high affinity TERT4 was immunogenic | RA (Relative Affinity) (HLA-B*0702): ≥ 10 | binding to / affinity for HLA-B*0702 (in words) (HLA-B*0702): low affinity

GPKHSDCLA [Her2/neu246, Her2/neu derived native peptide]
Immunogenicity (number of responding mice/number of vaccinated mice) [1]: 0/9 | immunogenicity in HLA-B*0702 transgenic mice (in words) [1]: non immunogenic

EPFTKAEML [MAGE-A2_121, MAGE-A derived native cryptic peptide]
RA (Relative Affinity) (HLA-B*0702): ≥ 10 | binding to / affinity for HLA-B*0702 (in words) (HLA-B*0702): low affinity

GPRALAETS [MAGE-A1_267, native peptide shared by MAGE-A1 and MAGE-A4]
Immunogenicity (number of responding mice/number of vaccinated mice) [1]: 0/3 | immunogenicity in HLA-B*0702 transgenic mice (in words) [1]: non immunogenic

EPVTKAEML [MAGE-A1_121, MAGE-A derived native cryptic peptide]
RA (Relative Affinity) (HLA-B*0702): ≥ 10 | binding to / affinity for HLA-B*0702 (in words) (HLA-B*0702): low affinity

APRCRAVRSL [TERT4, TERT derived peptide with complete consensus motif A1P2R3L9, control, dominant peptide]
immunogenicity in HLA-B*0702 transgenic mice (in words) [1]: immunogenic | RA (Relative Affinity) (HLA-B*0702; SD): 0.74 ± 0.12 | binding to / affinity for HLA-B*0702 (in words) (HLA-B*0702): strongly bind to HLA-B*0702; also recorded: strong affinity

DPRRLVQLL [TERT444, TERT derived native cryptic peptide]
immunogenicity in HLA-B*0702 transgenic mice (in words) [1]: only the high affinity TERT4 was immunogenic; also recorded: non-immunogenic | RA (Relative Affinity) (HLA-B*0702): ≥ 10 | binding to / affinity for HLA-B*0702 (in words) (HLA-B*0702): low affinity

SPKANKEIL [Her2/neu760, Her2/neu derived native peptide]
Immunogenicity (number of responding mice/number of vaccinated mice) [1]: 4/9 | immunogenicity in HLA-B*0702 transgenic mice (in words) [1]: immunogenic

GPRALIETS [MAGE-A2_274, native peptide shared by MAGE-A2 and MAGE-A6]
Immunogenicity (number of responding mice/number of vaccinated mice) [1]: 0/3 | immunogenicity in HLA-B*0702 transgenic mice (in words) [1]: non immunogenic

SPREGPLPA [Her2/neu1151, Her2/neu derived native peptide]
Immunogenicity (number of responding mice/number of vaccinated mice) [1]: 1/3 | immunogenicity in HLA-B*0702 transgenic mice (in words) ([1]; listed as HER2/neu1151): immunogenic | immunogenicity in HLA-B*0702 transgenic mice (in words) ([1]; listed as HER-2/neu1151): very weakly immunogenic

From publication PMC5312321, “A general strategy to optimize immunogenicity of HLA-B*0702 restricted cryptic peptides from tumor associated antigens: Design of universal neo-antigen like tumor vaccines for HLA-B*0702 positive patients” (Oncotarget, 2016)
